Experimental data taken from PMC9940851, “Seleno Containing Compounds as Potent and Selective Antifungal Agents” (ACS Infectious Diseases, 2022).
In brackets after ≈: the same amount, converted by molar mass.

Key:
MpaCA = target: T1, MpaCA (Malassezia pachydermatis, UniProt A0A0M8MPA4); experiment: stopped-flow CO2 hydrase assay; format: biochemical
T1 construct: gene Malapachy_3798
T1 sequence (A0A0M8MPA4 1-242): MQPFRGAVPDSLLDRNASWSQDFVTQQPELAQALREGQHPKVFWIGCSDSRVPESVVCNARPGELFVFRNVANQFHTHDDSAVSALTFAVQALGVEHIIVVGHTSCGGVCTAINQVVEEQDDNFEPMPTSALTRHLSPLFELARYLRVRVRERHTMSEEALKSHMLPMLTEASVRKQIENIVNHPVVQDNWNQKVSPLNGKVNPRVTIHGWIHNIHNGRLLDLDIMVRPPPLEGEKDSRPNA

M. globosa ATCC MYA 4612 = system: T2, M. globosa ATCC MYA 4612; experiment: microbe, parasite or virus in culture; conditions: Malassezia globosa
T2 construct: ATCC MYA 4612
Protocol: (§1) Inoculum preparations for antifungal assays were performed following the CLSI guidelines for antifungal susceptibility testing of yeasts.[31] Antifungal activity was evaluated on unicellular yeasts Candida albicans ATCC 10231, Candida glabrata ATCC 90030 (DSMZ 11226), Malassezia pachydermatis CDC 16334 (DSMZ 6172), Malassezia globosa ATCC MYA 4612, and Malassezia furfur ATCC 14521. All the fungal strains were stored at −80 °C in cryovials. Then Candida spp. and Malassezia pachydermatis were reactivated in RPMI 1640 broth for 24–48 h at 35 °C. The so obtained fresh cultures were streaked onto Sabouraud dextrose agar and incubated for 24–48 h at 35 °C. Malassezia globosa and furfur were reactivated in modified RPMI 1640 broth[32] for 24–48 h at 35 °C (M. furfur) and 33 °C (M. globosa), and then the cultures were streaked onto Leeming and Notman agar (MLNA) and incubated for 48–72 h at 35 °C for M. furfur and at 33 °C for M. globosa. The fungal inoculum for the testing was prepared by suspending in phosphate buffer (PB) 10 mM pH 7 4–5 colonies of about 1 mm diameter. The fungal suspension was then adjusted to a final optical density of 0.5 McFarland standard (1–5 × 10^6 cells/mL). The compound solutions were tested in a range of concentrations from 0.01 μg/mL to 256 μg/mL, and 50 μL were then added in 96 wells microtiter plates with 50 μL of fungal inoculum and incubated for 24–48 h at 35 °C. Growth and sterility controls were performed. […] Compounds 3a, 3c, 5b, 7a–d, 9c, 11e, 11i, and 14a,b were selected as representatives of the chemical moieties synthesized prior to their screen on yeasts of biomedical relevance such as M. pachydermatis DSMZ 6172, C. albicans ATCC 10231, and C. glabrata ATCC 90030 (DSMZ 11226) strains. The clinical used drugs Ketoconazole, SeS2, and Amphotericin B were included as references (Table 1).

ATCC M. furfur 14521 = system: T3, ATCC M. furfur 14521; experiment: microbe, parasite or virus in culture; conditions: Malassezia furfur
T3 construct: ATCC 14521
Protocol: as §1

[1] = system: T4, M. pachydermatis DSMZ 6172; experiment: microbe, parasite or virus in culture; set-up: broth microdilution MIC, M. pachydermatis and Candida, 35 °C; conditions: Malassezia pachydermatis, DSMZ6172
T4 construct: DSMZ 6172 (CDC 16334)
Protocol: as §1

MgCA [2] = target: T5, MgCA (Malassezia globosa, UniProt A8Q1N3); experiment: biochemical; set-up: stopped-flow CO2 hydration assay, phenol red absorbance at 557 nm, 15 min preincubation, Cheng-Prusoff KI
T5 construct: gene MGL_1814
T5 sequence (A8Q1N3 1-241): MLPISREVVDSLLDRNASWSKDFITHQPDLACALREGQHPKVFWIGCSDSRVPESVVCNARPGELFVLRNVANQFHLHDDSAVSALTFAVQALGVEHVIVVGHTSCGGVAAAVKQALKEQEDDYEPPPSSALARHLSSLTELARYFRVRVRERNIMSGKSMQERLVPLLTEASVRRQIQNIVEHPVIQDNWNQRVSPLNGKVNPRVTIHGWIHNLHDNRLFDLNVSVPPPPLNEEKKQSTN
Protocol: Enzyme concentrations ranged between 5 and 12 nM. […] The presence of the sulfonamide moiety (i.e., either primary/secondary) within our scaffolds prompted us to investigate whether the compounds listed in this study were endowed with modulation features against the enzymatic metalloenzyme carbonic anhydrases (CAs, EC 4.2.1.1) expressed in Malassezia spp. of interest such as M. pachydermatis (MpaCA), M. globosa (MgCA), and M. restricta (MreCA). […] The obtained activities in Table 3 were all reported as KI values.

MgCA [3] = target: T5, MgCA; experiment: stopped-flow CO2 hydrase assay; format: biochemical
Method in brief: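 Ki was derived by nonlinear least-squares fitting using the Cheng-Prusoff equation. Recombinant carbonic anhydrase at 5–12 nM was first preincubated with inhibitor at room temperature for 15 min. CO2 hydration at 1.7–17 mM CO2 was tracked by stopped-flow over 10–100 s with 0.2 mM phenol red read at 557 nm, in 20 mM Hepes pH 7.4 containing 20 mM Na2SO4. Initial rates were taken from no fewer than six traces with uncatalysed rates subtracted, and at least three determinations were averaged.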

C. albicans = experiment: microbe, parasite or virus in culture; set-up: broth microdilution MIC, M. pachydermatis and Candida, 35 °C; conditions: Candida albicans
Protocol: as §1

C. glabrata DSMZ 11226 = system: T6, C. glabrata DSMZ 11226; experiment: microbe, parasite or virus in culture; set-up: broth microdilution MIC, M. pachydermatis and Candida, 35 °C; conditions: Nakaseomyces glabratus, DSMZ11226
T6 construct: DSMZ 11226 (ATCC 90030)
Protocol: as §1

SMILES | Ki (MpaCA) | MIC (M. globosa ATCC MYA 4612) | MIC (ATCC M. furfur 14521) | MIC [1] | Ki (MgCA [2]) | Ki (MgCA [3]) | MIC (C. albicans) | MIC (C. glabrata DSMZ 11226)
Cc1cccc(C(=O)NC(=[Se])Nc2cc(S(N)(=O)=O)ccc2O)c1 [11j] | 14.8 µM | 128 µg/mL (≈ 310 µM) | 16 ± 8.76 µg/mL (≈ 38.8 µM) | 0.5 µg/mL (≈ 1.21 µM) | 5.64 µM |  |  | 
NS(=O)(=O)c1ccc(C[Se]c2ccc(NC(=[Se])NC(=O)c3cc(Br)cc(OC(F)(F)F)c3)cc2)cc1 [compound 12, 3-Bromo-N-((4-((4-sulfamoylbenzyl)selanyl)phenyl)carbamoselenoyl)-5-(trifluoromethoxy)benzamide] | 71.6 µM | 256 µg/mL (≈ 358 µM) | 128 µg/mL (≈ 179 µM) | 6.7 ± 2.3 µg/mL (≈ 9.38 µM) | 1.76 µM |  |  | 
NS(=O)(=O)c1ccc(NC(=[Se])NC(=O)c2cc(Br)cc(OC(F)(F)F)c2)cc1 [7c] | 83.5 µM | 128 µg/mL (≈ 235 µM) | 4 µg/mL (≈ 7.34 µM) | 0.5 µg/mL (≈ 0.917 µM) |  | 4.3 µM | 64 µg/mL (≈ 117 µM) | 8 µg/mL (≈ 14.7 µM)
NS(=O)(=O)c1ccc(O)c(NC(=[Se])NC(=O)c2cc(Br)cc(OC(F)(F)F)c2)c1 [11i] | 12.7 µM | 64 µg/mL (≈ 114 µM) | 5 ± 2.45 µg/mL (≈ 8.91 µM) | 0.5 µg/mL (≈ 0.891 µM) | 6.25 µM |  | 64 µg/mL (≈ 114 µM) | 32 µg/mL (≈ 57 µM)
O=C(NC(=[Se])Nc1c(F)c(F)cc(F)c1F)c1ccccc1 [16d] | > 10 µM | > 256 µg/mL | 2.7 ± 1.15 µg/mL (≈ 7.2 µM) | 1 µg/mL (≈ 2.67 µM) | > 10 µM |  |  | 
NS(=O)(=O)c1ccc(NC(=[Se])Nc2ccccc2F)cc1 [3c] | 0.152 µM | > 256 µg/mL | 16 µg/mL (≈ 43 µM) | 64 µg/mL (≈ 172 µM) |  | 0.721 µM | 341 µg/mL (≈ 917 µM) | 64 µg/mL (≈ 172 µM)
NS(=O)(=O)c1ccc(CCNC(=[Se])Nc2ccccc2F)cc1 [5b] | 0.149 µM | 9 ± 5.9 µg/mL (≈ 22.5 µM) | 1 µg/mL (≈ 2.5 µM) | 0.25 µg/mL (≈ 0.624 µM) |  | 0.633 µM | 107 µg/mL (≈ 267 µM) | 3.3 µg/mL (≈ 8.24 µM)
Fc1ccccc1NC(=S)Nc1ccccc1 [14d] | > 10 µM | > 256 µg/mL | 128 µg/mL (≈ 520 µM) | > 256 µg/mL | > 10 µM |  |  | 
NS(=O)(=O)c1ccc(NC(=[Se])NC(=O)c2ccccc2)cc1 [7a] | 44.8 µM | 14.7 ± 3.26 µg/mL (≈ 38.5 µM) | 0.85 ± 0.36 µg/mL (≈ 2.22 µM) | 0.5 µg/mL (≈ 1.31 µM) |  | 3.85 µM | 128 µg/mL (≈ 335 µM) | 32 µg/mL (≈ 83.7 µM)
CC(=O)Oc1ccccc1C(=O)NC(=[Se])Nc1ccc(S(N)(=O)=O)cc1 [7d] | 66.8 µM | 256 µg/mL (≈ 581 µM) | 2.7 ± 1.15 µg/mL (≈ 6.13 µM) | 3.33 ± 1.15 µg/mL (≈ 7.56 µM) |  | 5.88 µM | 128 µg/mL (≈ 291 µM) | 64 µg/mL (≈ 145 µM)
NS(=O)(=O)c1ccc(CCNC(=[Se])NC(=O)c2ccc3c(c2)OCO3)cc1 [9c] | 55.9 µM | 37.3 ± 13.1 µg/mL (≈ 82.1 µM) | 2 ± 1.37 µg/mL (≈ 4.4 µM) | 1 µg/mL (≈ 2.2 µM) |  | 1.78 µM | > 256 µg/mL | > 256 µg/mL
NS(=O)(=O)c1ccc(NC(=[Se])Nc2ccccc2)cc1 [3a] | 0.514 µM | 4.3 ± 1.97 µg/mL (≈ 12.1 µM) | 0.5 µg/mL (≈ 1.41 µM) | 0.5 µg/mL (≈ 1.41 µM) |  | 0.599 µM | 64 µg/mL (≈ 181 µM) | 10.7 µg/mL (≈ 30.2 µM)
O=C(Nc1ccccc1)Nc1ccccc1F [14c] | > 10 µM | > 256 µg/mL | > 256 µg/mL | > 256 µg/mL | > 10 µM |  |  | 
O=C(NC(=[Se])Nc1ccccc1)c1cc(Br)cc(OC(F)(F)F)c1 [16b] | > 10 µM | 341 ± 148 µg/mL (≈ 732 µM) | 10.7 ± 4.62 µg/mL (≈ 23 µM) | 1 µg/mL (≈ 2.15 µM) | > 10 µM |  |  | 
O=C(NC(=[Se])Nc1ccccc1F)c1ccccc1 [16c] | > 10 µM | 64 µg/mL (≈ 199 µM) | 2 µg/mL (≈ 6.23 µM) | 1 µg/mL (≈ 3.11 µM) | > 10 µM |  |  | 
O=C(NC(=[Se])Nc1ccccc1)c1ccccc1 [16a] | > 10 µM | 29.3 ± 18.7 µg/mL (≈ 96.6 µM) | 0.8 ± 0.6 µg/mL (≈ 2.64 µM) | 0.8 ± 0.29 µg/mL (≈ 2.64 µM) | > 10 µM |  |  | 
NS(=O)(=O)c1ccc(NC(=[Se])NC(=O)c2ccc3c(c2)OCO3)cc1 [7b] | 20.4 µM | 16 ± 8.76 µg/mL (≈ 37.5 µM) | 0.5 µg/mL (≈ 1.17 µM) | 0.5 µg/mL (≈ 1.17 µM) |  | 4.86 µM | 128 µg/mL (≈ 300 µM) | 16 µg/mL (≈ 37.5 µM)
C[C@@H]1[C@H](O)[C@@H](C)/C=C/C=C/C=C/C=C/C=C/C=C/C=C/[C@H](O[C@@H]2O[C@H](C)[C@@H](O)[C@H](N)[C@@H]2O)C[C@@H]2O[C@](O)(C[C@@H](O)C[C@@H](O)[C@H](O)CC[C@@H](O)C[C@@H](O)CC(=O)O[C@H]1C)C[C@H](O)[C@H]2C(=O)O [Amphotericin B] |  | 125 µg/mL (≈ 135 µM) | 1.95 µg/mL (≈ 2.11 µM) | 0.43 ± 0.12 µg/mL (≈ 0.465 µM) |  |  | 0.24 ± 1 µg/mL (≈ 0.26 µM) | 0.98 µg/mL (≈ 1.06 µM)
CC(=O)N1CCN(c2ccc(OC[C@@H]3CO[C@@](Cn4ccnc4)(c4ccc(Cl)cc4Cl)O3)cc2)CC1 (racemic) [Ketoconazole] |  | 0.25 µg/mL (≈ 0.47 µM) | 0.25 µg/mL (≈ 0.47 µM) | 0.03 µg/mL (≈ 0.0565 µM) |  |  | 0.05 ± 0.02 µg/mL (≈ 0.0941 µM) | 96 ± 37 µg/mL (≈ 181 µM)
CC(=O)Oc1ccccc1C(=O)NC(=[Se])Nc1cc(S(N)(=O)=O)ccc1O [11e] | 33.8 µM | 6.7 ± 2.1 µg/mL (≈ 14.7 µM) | 0.75 ± 0.67 µg/mL (≈ 1.64 µM) | 0.5 µg/mL (≈ 1.1 µM) |  | 4.73 µM | 256 µg/mL (≈ 561 µM) | 256 µg/mL (≈ 561 µM)
